Drawing on patent US20250381185A1, “CDK4/PARP1 DUAL-TARGET INHIBITOR AND USE THEREOF” (YANBIAN UNIVERSITY, priority 2024, published 2025), this text covers IC50 for 25 compounds.

A word on the IC50: it is the concentration at which inhibition is half-maximal. Low values mean greater potency, high ones weaker potency.

In experiment [1] the target is CDK4 (Homo sapiens, UniProt P11802). Nature of the experiment: IC50 of dual-target inhibitors against CDK4. The class given is biochemical. The protocol:
The effectiveness of the present application was verified through the following tests: • (1) IC50 values of the dual-target inhibitors (Examples 1-11) against CDK4 were determined.

The target in experiment [2] is PARP1 (Homo sapiens, UniProt P09874). The experiment is described as follows: IC50 of dual-target inhibitors against PARP1. The class given is biochemical.
PARP1, sequence (P09874 whole entry): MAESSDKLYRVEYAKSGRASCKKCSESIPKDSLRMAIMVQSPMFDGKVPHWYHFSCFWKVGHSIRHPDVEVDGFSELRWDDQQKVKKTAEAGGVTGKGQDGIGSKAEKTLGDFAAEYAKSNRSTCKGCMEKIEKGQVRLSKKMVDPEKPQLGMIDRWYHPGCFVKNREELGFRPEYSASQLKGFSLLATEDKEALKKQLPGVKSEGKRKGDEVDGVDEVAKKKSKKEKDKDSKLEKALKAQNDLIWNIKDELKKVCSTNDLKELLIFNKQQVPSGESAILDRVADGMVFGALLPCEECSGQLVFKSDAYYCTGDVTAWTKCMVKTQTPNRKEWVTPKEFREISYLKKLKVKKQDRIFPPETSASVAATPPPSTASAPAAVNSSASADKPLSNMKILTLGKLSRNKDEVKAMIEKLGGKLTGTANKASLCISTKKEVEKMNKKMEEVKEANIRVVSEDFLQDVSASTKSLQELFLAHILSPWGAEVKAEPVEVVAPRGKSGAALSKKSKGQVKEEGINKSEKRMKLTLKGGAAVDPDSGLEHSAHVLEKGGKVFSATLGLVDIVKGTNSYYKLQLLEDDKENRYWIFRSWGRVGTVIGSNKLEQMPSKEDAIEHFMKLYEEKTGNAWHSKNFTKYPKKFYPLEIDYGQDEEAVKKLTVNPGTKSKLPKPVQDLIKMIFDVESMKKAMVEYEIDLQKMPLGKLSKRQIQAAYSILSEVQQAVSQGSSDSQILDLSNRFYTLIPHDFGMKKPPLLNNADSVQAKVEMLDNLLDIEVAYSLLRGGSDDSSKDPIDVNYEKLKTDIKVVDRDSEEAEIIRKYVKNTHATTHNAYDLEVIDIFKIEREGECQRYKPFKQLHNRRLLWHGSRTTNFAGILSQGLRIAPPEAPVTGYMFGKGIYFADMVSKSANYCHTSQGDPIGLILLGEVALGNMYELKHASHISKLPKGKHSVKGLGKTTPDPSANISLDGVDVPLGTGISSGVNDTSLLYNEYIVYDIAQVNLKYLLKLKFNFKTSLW

Molecules are shown by their SMILES.

CDK4, sequence (P11802 whole entry): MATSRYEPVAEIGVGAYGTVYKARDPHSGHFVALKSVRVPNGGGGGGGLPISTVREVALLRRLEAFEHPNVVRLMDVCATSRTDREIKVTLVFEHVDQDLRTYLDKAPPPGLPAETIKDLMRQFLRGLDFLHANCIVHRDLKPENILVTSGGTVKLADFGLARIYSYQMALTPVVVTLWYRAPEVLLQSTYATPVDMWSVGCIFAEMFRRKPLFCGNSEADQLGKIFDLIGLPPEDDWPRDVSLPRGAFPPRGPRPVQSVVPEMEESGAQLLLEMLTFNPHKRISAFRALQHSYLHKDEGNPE
CDK4, sequence (P24385 whole entry partner): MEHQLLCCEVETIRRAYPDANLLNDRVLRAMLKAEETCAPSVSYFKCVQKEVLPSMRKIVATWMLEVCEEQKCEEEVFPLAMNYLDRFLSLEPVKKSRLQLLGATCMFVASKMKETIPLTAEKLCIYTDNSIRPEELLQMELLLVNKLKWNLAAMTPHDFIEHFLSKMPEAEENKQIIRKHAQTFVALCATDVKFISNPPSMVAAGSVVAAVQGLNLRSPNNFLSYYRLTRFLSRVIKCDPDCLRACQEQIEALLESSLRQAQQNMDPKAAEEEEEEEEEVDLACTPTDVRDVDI

Consider `Cc1nc2c(F)cc(-c3nc(Nc4cccc(Cc5n[nH]c(=O)c6ccccc56)c4)ncc3F)cc2n1C(C)C` [Compound A1], for which the IC50 in experiment [1] was < 10 nM; in experiment [2], 100 to 500 nM.

Regarding `Cc1nc2c(F)cc(-c3nc(Nc4ccc(C(=O)Nc5cccc(Cc6n[nH]c(=O)c7ccccc67)c5)cc4)ncc3F)cc2n1C(C)C` [Compound A2], the values for the IC50 in experiment [1] and in experiment [2] were < 10 nM and > 500 nM, respectively.

On to `Cc1nc2c(F)cc(-c3nc(Nc4ccc(CC(=O)Nc5cccc(Cc6n[nH]c(=O)c7ccccc67)c5)cc4)ncc3F)cc2n1C(C)C` [Compound A3], for which the IC50 in experiment [1] and in experiment [2] was 10 to 100 nM throughout.

In the case of `Cc1nc2c(F)cc(-c3nc(Nc4ccc(NC(=O)CCC(=O)Nc5cccc(Cc6n[nH]c(=O)c7ccccc67)c5)cc4)ncc3F)cc2n1C(C)C` [Compound A4], the IC50 in experiment [1] was < 10 nM; in experiment [2] it was 100 to 500 nM.

Regarding `Cc1nc2c(F)cc(-c3nc(Nc4cccc(C(=O)Nc5cccc(Cc6n[nH]c(=O)c7ccccc67)c5)c4)ncc3F)cc2n1C(C)C` [Compound A5], the IC50 in experiment [1] was 10 to 100 nM; in experiment [2] it was > 500 nM.

For the compound `Cc1nc2c(F)cc(-c3nc(Nc4ccc(Cc5n[nH]c(=O)c6ccccc56)cc4)ncc3F)cc2n1C(C)C` [Compound B1], the IC50 in experiment [1] is < 10 nM; in experiment [2], > 500 nM.

As to `Cc1nc2c(F)cc(-c3nc(Nc4ccc(NC(=O)c5cc(Cc6n[nH]c(=O)c7ccccc67)ccc5F)cc4)ncc3F)cc2n1C(C)C` [Compound C1], the results for the IC50 in experiment [1] and in experiment [2] were 10 to 100 nM and 100 to 500 nM, respectively.

For `Cc1nc2c(F)cc(-c3nc(Nc4ccc(C(=O)N5CCN(c6ccc(NC(=O)c7cc(Cc8n[nH]c(=O)c9ccccc89)ccc7F)cc6)CC5)cc4)ncc3F)cc2n1C(C)C` [Compound C2], the IC50 was 10 to 100 nM in experiment [1] and > 500 nM in experiment [2].

For the compound `Cc1nc2c(F)cc(-c3nc(Nc4ccc(C(=O)N5CCN(c6cccc(NC(=O)c7cc(Cc8n[nH]c(=O)c9ccccc89)ccc7F)c6)CC5)cc4)ncc3F)cc2n1C(C)C` [Compound C3], the IC50 in experiment [1] is 10 to 100 nM; in experiment [2] it was > 500 nM.

In the case of `Cc1nc2c(F)cc(-c3nc(Nc4ccc(N5CCN(C(=O)c6cc(Cc7n[nH]c(=O)c8ccccc78)ccc6F)CC5)cc4)ncc3F)cc2n1C(C)C` [Compound C5], the 50% inhibitory concentration (IC50) in experiment [1] and in experiment [2] was < 10 nM in each case.

In the case of `Cc1nc2c(F)cc(-c3nc(Nc4ccc(CN5CCN(C(=O)c6cc(Cc7n[nH]c(=O)c8ccccc78)ccc6F)CC5)cc4)ncc3F)cc2n1C(C)C` [Compound C6], the IC50 in experiment [1] is < 10 nM; in experiment [2], 10 to 100 nM.

`Cc1nc2c(F)cc(-c3nc(Nc4ccc(C(=O)N5CCN(C(=O)c6cc(Cc7n[nH]c(=O)c8ccccc78)ccc6F)CC5)cc4)ncc3F)cc2n1C(C)C` [Compound C7]: the results for the IC50 in experiment [1] and in experiment [2] were < 10 nM and 10 to 100 nM, respectively.

Consider `Cc1nc2c(F)cc(-c3nc(Nc4cccc(C(=O)N5CCN(C(=O)c6cc(Cc7n[nH]c(=O)c8ccccc78)ccc6F)CC5)c4)ncc3F)cc2n1C(C)C` [Compound C8], for which the IC50 in experiment [1] and in experiment [2] was 10 to 100 nM throughout.

On to `Cc1nc2c(F)cc(-c3nc(Nc4ccc(CC(=O)N5CCN(C(=O)c6cc(Cc7n[nH]c(=O)c8ccccc78)ccc6F)CC5)cc4)ncc3F)cc2n1C(C)C` [Compound C9], for which the figures for the IC50 in experiment [1] and in experiment [2] were < 10 nM and 10 to 100 nM, respectively.

In the case of `CN(C)C(=O)c1cc2cnc(NNC(=O)c3cc(Cc4n[nH]c(=O)c5ccccc45)ccc3F)nc2n1C1CCCC1` [Compound D1], the figures for the IC50 in experiment [1] and in experiment [2] were > 500 nM and 100 to 500 nM, respectively.

As for `CN(C)C(=O)c1cc2cnc(NCCCCCCNC(=O)c3cc(Cc4n[nH]c(=O)c5ccccc45)ccc3F)nc2n1C1CCCC1` [Compound D6], the IC50 in experiment [1] is > 500 nM; in experiment [2], < 10 nM.

Take `CN(C)C(=O)c1cc2cnc(N3CCN(C(=O)c4cc(Cc5n[nH]c(=O)c6ccccc56)ccc4F)CC3)nc2n1C1CCCC1` [Compound D9]: the IC50 is > 500 nM in experiment [1] and < 10 nM in experiment [2].

For `CN(C)C(=O)c1cc2cnc(Nc3ccc(NC(=O)CNC(=O)c4cc(Cc5n[nH]c(=O)c6ccccc56)ccc4F)cc3)nc2n1C1CCCC1` [Compound D14], the IC50 in experiment [1] was < 10 nM; in experiment [2], 10 to 100 nM.

Take `CN(C)C(=O)c1cc2cnc(NCCNC(=O)CNC(=O)c3cc(Cc4n[nH]c(=O)c5ccccc45)ccc3F)nc2n1C1CCCC1` [Compound E1]: the figures for the IC50 in experiment [1] and in experiment [2] were 100 to 500 nM and < 10 nM, respectively.

For the compound `CC(C)[C@H](NC(=O)c1cc(Cc2n[nH]c(=O)c3ccccc23)ccc1F)C(=O)NCCNc1ncc2cc(C(=O)N(C)C)n(C3CCCC3)c2n1` [Compound E2], the figures for the half-inhibitory concentration (IC50) in experiment [1] and in experiment [2] were 100 to 500 nM and 10 to 100 nM, respectively.

As for `CN(C)C(=O)c1cc2cnc(NCCNC(=O)[C@H](Cc3c[nH]c4ccccc34)NC(=O)c3cc(Cc4n[nH]c(=O)c5ccccc45)ccc3F)nc2n1C1CCCC1` [Compound E3], the IC50 in experiment [1] is > 500 nM; in experiment [2], 10 to 100 nM.

Consider `CN(C)C(=O)c1cc2nc(NCCNC(=O)[C@H](Cc3ccccc3)NC(=O)c3cc(Cc4n[nH]c(=O)c5ccccc45)ccc3F)ncc2n1C1CCCC1` [Compound E4], for which the IC50 in experiment [1] is > 500 nM; in experiment [2], 10 to 100 nM.

Consider `CC(C)[C@H](NC(=O)c1cc(Cc2n[nH]c(=O)c3ccccc23)ccc1F)C(=O)NNc1ncc2c(cc(C(=O)N(C)C)n2C2CCCC2)n1` [Compound E8], for which the IC50 in experiment [1] was > 500 nM; in experiment [2], 10 to 100 nM.

For `CN(C)C(=O)c1cc2cnc(NCCOC(=O)c3cc(Cc4n[nH]c(=O)c5ccccc45)ccc3F)nc2n1C1CCCC1` [Compound F1], the IC50 in experiment [1] was > 500 nM; in experiment [2], 10 to 100 nM.

Consider `CN(C)C(=O)c1cc2cnc(NCCCOC(=O)c3cc(Cc4n[nH]c(=O)c5ccccc45)ccc3F)nc2n1C1CCCC1` [Compound F2], for which the results for the IC50 in experiment [1] and in experiment [2] were > 500 nM and 10 to 100 nM, respectively.
